Assay [1] deals with LACK-sensitized and challenged mice. Nature of the assay: LACK-induced allergic asthma model, therapeutic i.p. treatment. It is filed as in vivo. On the procedure:
The main differences compared to the previous (part a) protocol are: • Mice were treated with OM-197-MP-AC i.p. only on days 15, 17 and 19 (i.e. at least 1 week after the second sensitization) at the dose of 1 mg/Kg (20 μg per mouse). • The lung cytokines measured by multiplex analysis using FACSArray were IL-4, IL-5, IL-13, IFN-γ, and IL-10. Results: Total Cell Number and Eosinophils in BAL:
Two days after the last aerosol, mice were sacrificed and BAL cells harvested.
In order to further characterize the immune status of mice after therapeutic treatment with OM-197-MP-AC, we analyzed LACK-specific IgE in sera of treated mice and in those of untreated mice by ELISA. Whereas LACK-specific IgE levels increased 7-fold upon exposition to LACK aerosols, sera of OM-197-MP-AC-treated mice contained 2-fold less (p<0.05) LACK-specific IgE compared to untreated LACK challenged mice.
FIG. 8: Mice were therapeutically treated three times as described in the method section, lavages were performed in individual mice bled with a canula inserted into their trachea. Lungs were washed 3 times with 1 ml of warmed PBS. Cells were washed with PBS, resuspended in 300 μl, and counted using a Burker-Türk chamber. For differential BAL cell counts, cytospin preparations were made and stained with Wright/Giemsa coloration. The groups tested were: LACK-sensitized and PBS-challenged wt mice (Control), LACK-sensitized and challenged wt mice (Asthma), and OM-197-MP-AC-treated wt mice (OM-197). The total cell number in BAL was determined by microscopic examination of cytospin preparations stained with Wright/Giemsa coloration. The dotted line indicates throughout the graph the value obtained in untreated asthmatic animals.
FIG. 9: Percentage of eosinophils in BAL analyzed by microscopic examination of cytospin preparations stained with Wright/Giemsa coloration. Mice were therapeutically treated three times as described in the method section, cells from BAL were harvested as explained in FIG. 8. The (therapeutic) groups studied are the same as those used in FIG. 8. The dotted line indicates throughout the graph the value obtained in untreated asthmatic animals.
FIG. 10: To analyze lung cytokine contents, lungs were harvested and left lungs were used to prepare protein extracts. 400 μl were recovered for each left lung. Cytokines were measured by multiplex analysis using FACSArray, and results are given in pg/ml. The (therapeutic) groups studied are the same as those used in FIGS. 8 and 9. The dotted lines indicate throughout the graphs the values obtained in untreated asthmatic animals.

The next assay deals with murine DC cells. Nature of the assay: LPS-induced IL-12, TNF-α and IL-10 production by bone marrow derived dendritic cells. In kind it is cell-based, murine (C57BL/7). Particulars: murine BM-derived DC; compound 0.01-100 μg/ml 1 h 30 before LPS 1 μg/ml; 20 h; ELISA. On the procedure:
Femora and tibiae from two male C57BL/7, 6 week-old (Charles River Laboratories France), were removed, stripped of muscles and tendons, and desinfected with 70% ethanol. Both ends of each bone were cut and the marrow was flushed with HBSS (Gibco BRL) using a syringe with a 26-gauge needle. The resulting cell suspension was centrifuged for 5 min. at 500 g and washed in HBSS. The cells were resuspended at 3×10^5 cells/ml in RPMI-1640 (Gibco BRL) supplemented with 2 mM L-glutamin (Sigma), 100 U/ml penicillin (Sigma), 100 μg/ml streptomycin (Sigma), 50 μM β-mercaptoethanol (Sigma), 10% heat-inactivated FCS (Sigma) and 15 ng/ml murine rGM-CSF (R&D).
To generate bone marrow (BM) derived dendritic cells (DC), BM leukocytes were cultured in 100-mm bacteriological petri dishes (Falcon 1029) for 8 days at 37° C. in 5% CO2. On day 0, 10 ml of cell suspension were seeded per dish. On day 3, another 10 ml of freshly prepared medium were added to each plate and on day 6, 9 ml of top medium were carefully removed from each plate and replaced by 10 ml of fresh medium.
Non-adherent cells of the 8-day old BM cell cultures were collected, centrifuged for 5 min. at 500 g, and resuspended at 1.25×10^6 cells/ml in supplemented RPMI containing 10 ng/ml GM-CSF. The cells were then seeded in 24-well tissue culture plates ([…]) and incubated for 1 h 30 at 37° C. in 5% CO2 in the absence or presence of OM-294-DP or OM-197-MP-AC (0.01-100 μg/ml/200 μl/well). LPS (E.coli O26:B6, Sigma), was then added at 1 μg/ml, and the plates were further incubated. After 20 h incubation, the supernatants were collected for analysis of cytokines. IL-12p70, IL-10, and TNF-α concentrations in DC culture supernatants were measured by ELISA using OptEIA matched Ab pairs from BD Pharmingen. Supersignal ELISA Pico chemiluminescent peroxidase substrate (BD Pharmingen) was used for the detection by luminometry (Wallac 1420 multilabel counter Victor-2). The assays were performed according to manufacturer's instructions.
FIG. 1: IL-12 (left panels) and IL-10 (right panels) secretion by murine DC stimulated by LPS (1 μg/ml) alone, or first during 90 minutes with the indicated concentrations (in μg/ml) of OM-197-MP-AC (A) or 294-DP (B), and then by LPS (1 μg/ml) for 20 additional hours. The supernatants were collected from the DC cultures and analyzed by ELISA for the presence of IL-12 and IL-10.
FIG. 2: TNF-α secretion by murine DC stimulated by LPS (1 μg/ml) alone, or first during 90 minutes with the indicated concentrations (in μg/ml) of 294-DP (294), or of OM-197-MP-AC (197), and then by LPS (1 μg/ml) for 20 additional hours. The supernatants were collected from the DC cultures and analyzed by ELISA for the presence of TNF-α.

Where [2] appears, read: 1 mg/Kg i.p. therapeutic, versus untreated mice.

Molecules are shown by their SMILES.

Take `CCCCCCCCCCCC(=O)O[C@H](CCCCCCCCCCC)CC(=O)N[C@@H](CCOP(=O)(O)O)C(=O)NCCC[C@H](COC(=O)CCCCCN)NC(=O)C[C@H](O)CCCCCCCCCCC` [OM-197-MP-AC, (3S, 9R)-3-[(R)-3-dodecanoyloxytetradecanoylamino]-4-oxo-5-aza-9-[(R)-3-hydroxytetradecanoylamino]-decan-1, 10-diol 1-dihydrogenophosphate 10-(6-aminohexanoate)]: the “Eosinophils in BAL, less than untreated mice” value in assay [1] (1 mg/Kg i.p. on days 15, 17, 19 (therapeutic)) is listed as 40-45 fold less. Further, in assay [1] (1 mg/Kg i.p. on days 15, 17, 19 (therapeutic), versus untreated mice), the “BAL cell recruitment impaired” value was 90%. For the same molecule, in assay [1] (1 mg/Kg i.p. therapeutic), the “Lung IFN-γ levels, treated versus untreated mice” value was “reduced” and the “Lung IL-10 amounts upon treatment” value is listed as “not significantly increased”. Moreover, in assay [1] (1 mg/Kg i.p. therapeutic, ELISA), the “LACK-specific IgE in sera, less than untreated LACK challenged mice” value amounted to 2 fold less. In assay [1] (setting [2]), the “Lung IL-4 levels reduced” value amounted to 90%, the “Lung IL-5 amounts reduced” value is 70% and the “Lung IL-13 amounts reduced” value amounted to 85%. In the assay with murine DC cells, the “LPS-induced production of IL-10” value is listed as “increase”, the “LPS-induced production of IL-12” value is recorded as “decrease” and the “LPS-induced production of TNF-α” value is recorded as “decrease”.

These data come from US8618080B2, “Immunomodulatory compounds and treatment of diseases related to an overproduction of inflammatory cytokines” (OM Pharma, priority 2006, dated 2013).
